Experimental data reported in patent publication US8609667B2, “E-type phenyl acrylic ester compounds containing substituted anilino pyrimidine group and uses thereof” (Sinochem Corporation, priority 2009, dated 2013).
Where two headings read alike, the source gives them in different places.

Experiments:
Format in all cases: in vivo
[1] = system: adults of Tetranychus cinnabarinus; assay: Acaricidal activity against adults in greenhouse (spray on broadbean shoots, mortality after 72 hrs); settings: for control against adults of Tetranychus cinnabarinus: spray, 72 hrs; for mortality at 0.625 µg/mL / mortality at 1.25 µg/mL / mortality at 2.5 µg/mL / mortality at 5 µg/mL / mortality at 10 µg/mL / mortality at 40 µg/mL: Tetranychus cinnabarinus, read-out: mortalities of adults of Tetranychus cinnabarinus (%)
Protocol: (§1) The activity determinations of compounds of the present invention against adults, nymphs and eggs of Tetranychus cinnabarinus were carried out in greenhouse by the following procedures:
The activity determination against adults in greenhouse: the compounds were weighed and dissolved in acetone to obtain mother liquid, and then the mother liquid was diluted to required concentration with placed running water containing 0.1% of Tween 80. Broadbean shoots with two true leaves were used to inoculate adults of Tetranychus cinnabarinus which were counted, spraying treatment was performed by portable sprayer (DeVilbiss Atomizer M163), 3 replicates were set for each treatment. After treatment the broadbean shoots were maintained in standard observation room. Scores were conducted and mortalities were calculated after 72 hrs.

[2] = system: eggs of Tetranychus cinnabarinus; assay: Activity against eggs in greenhouse (hatching inhibition rate); settings: for hatching inhibition rate against eggs of Tetranychus cinnabarinus: dose 10 mg/L; for inhibition at 0.625 µg/mL / inhibition at 2.5 µg/mL / inhibition at 10 µg/mL: Tetranychus cinnabarinus, read-out: hatching inhibition rate against eggs (%)
Protocol: as §1
The activity determination against eggs in greenhouse: Broadbean shoots in pot with one true leaf retained were taken, ten healthy female adults of Tetranychus cinnabarinus were inoculated to the leaves, the adults were removed after 24 hrs and the eggs were counted and then sprayed. The treatment of test compounds and spaying method were the same as that of the activity determination in greenhouse against adults. Once eggs of blank control were all hatched after 5 days, unhatched eggs in each treatment were investigated and the hatching inhibition rate were calculated.

[3] = system: nymphs of Tetranychus cinnabarinus; assay: Acaricidal activity against nymphs in greenhouse (spray, mortality after 72 hrs)
Protocol: as §1
The activity determination against nymphs in greenhouse: broadbean shoots with two true leaves in pot were taken, ten healthy female adults of Tetranychus cinnabarinus were inoculated to the leaves, the adults were removed after 24 hrs and the eggs were cultivated into nymphs after 7-10 days. The nymphs were counted and then sprayed. 3 replicates were set for each treatment. And then were maintained in standard observation room. Scores were conducted and mortalities were calculated after 72 hrs.

[4] = system: citrus red mite; assay: Field trial against citrus red mite (Guilin, China); settings: 48 mg/L (24% SC)
Protocol: Field Trial Against Citrus Red Mite (Guilin, China)
The trial was carried out in a 2-year-old Shatang orange orchard in Chaotian town lingchuan county guilin city, trifoliate orange trees were selected as stocks, the intervals between two plants was 1.5×2.5 m, the average height was 1.45 m and the crown width was 1.30 m. Two trees were selected in each plot, with random arrangement and 4 replications. Compound 9 (15% SC) was set at two different doses (100 mg/L and 25 mg/L), and spirodiclofen (24% SC) was set at one dose (48 mg/L). Matabi Supergreen 16 Knapsack Sprayer 16 Liter was used to spray evenly with 2 L of spaying volume for each plant. The plants were treated once on 30 Oct. 2009, at that time, adults, nymphs and eggs of citrus red mite all existed, with adults/eggs=1/1.27. During the day the plants were treated, and the weather was good with the average temperature at 23° C. The first three days after treatment were all clear days. The number of mites was investigated before treatment and on the 1st, 3rd, 10th, 15th, 20th and 30th day after treatment respectively. Two trees of each plot were investigated according to the five directions of the tree crown (east, south, west, north and central), 5 leaves in each direction were investigated to calculate the number of living mites, with 50 leaves each plot. The decline rate of mite population and corrected efficacy were calculated according to formulas below: The decline rate of mite population(%)=[(the average number of mite on each leaf before treatment−the average number of mite on each leaf after treatment)/the average number of mite on each leaf before treatment]×100. Corrected efficacy(%)=[(the decline rate of mite population in treated area−the decline rate of mite population in untreated area)/(100−the decline rate of mite population in untreated area)]×100.

CO/C=C(/C(=O)OC)c1ccccc1COc1cc(C(F)(F)F)nc(Nc2ccccc2F)n1 [Compound 2]
control against adults of Tetranychus cinnabarinus ([1]; dose 10 mg/L): 100% | control against adults of Tetranychus cinnabarinus ([1]; dose 40 mg/L): 100% | control against adults of Tetranychus cinnabarinus ([1]; dose 100 mg/L): 100%

CO/C=C(/C(=O)OC)c1ccccc1COc1cc(C(F)(F)F)nc(Nc2cccc(C)c2)n1 [Compound 6]
control against adults of Tetranychus cinnabarinus ([1]; dose 40 mg/L): 100% | control against adults of Tetranychus cinnabarinus ([1]; dose 100 mg/L): 100%

CO/C=C(/C(=O)OC)c1ccccc1COc1cc(C(F)(F)F)nc(Nc2ccc(F)cc2F)n1 [Compound 8]
hatching inhibition rate against eggs (%) ([2]; 0.625 mg/L, Table 8): 25% | hatching inhibition rate against eggs (%) ([2]; 2.5 mg/L, Table 8): 90% | hatching inhibition rate against eggs (%) ([2]; 10 mg/L, Table 8): 100% | hatching inhibition rate against eggs of Tetranychus cinnabarinus [2]: 100% | control against adults of Tetranychus cinnabarinus ([1]; dose 5 mg/L): 100% | control against adults of Tetranychus cinnabarinus ([1]; dose 10 mg/L): 100% | control against adults of Tetranychus cinnabarinus ([1]; dose 40 mg/L): 100% | control against adults of Tetranychus cinnabarinus ([1]; dose 100 mg/L): 100% | control against nymphs of Tetranychus cinnabarinus ([3]; dose 0.63 mg/L): more than 75% | control against nymphs of Tetranychus cinnabarinus ([3]; dose 2.5 mg/L): more than 95%

CO/C=C(/C(=O)OC)c1ccccc1COc1cc(C(F)(F)F)nc(Nc2ccc(Cl)cc2F)n1 [Compound 12]
control against adults of Tetranychus cinnabarinus ([1]; dose 5 mg/L): 100% | control against adults of Tetranychus cinnabarinus ([1]; dose 10 mg/L): 100% | control against adults of Tetranychus cinnabarinus ([1]; dose 40 mg/L): 100% | control against adults of Tetranychus cinnabarinus ([1]; dose 100 mg/L): 100%

CO/C=C(/C(=O)OC)c1ccccc1COc1cc(C(F)(F)F)nc(Nc2ccc(F)c(Cl)c2)n1 [Compound 13]
control against adults of Tetranychus cinnabarinus ([1]; dose 100 mg/L): 100%

CO/C=C(/C(=O)OC)c1ccccc1COc1cc(C(F)(F)F)nc(Nc2ccc(F)c(F)c2F)n1 [Compound 15]
hatching inhibition rate against eggs of Tetranychus cinnabarinus [2]: 100% | control against adults of Tetranychus cinnabarinus ([1]; dose 0.31 mg/L): more than 75% | control against adults of Tetranychus cinnabarinus ([1]; dose 0.625 mg/L): 95% | control against adults of Tetranychus cinnabarinus ([1]; dose 5 mg/L): 100% | control against adults of Tetranychus cinnabarinus ([1]; dose 10 mg/L): 100% | control against adults of Tetranychus cinnabarinus ([1]; dose 40 mg/L): 100% | control against adults of Tetranychus cinnabarinus ([1]; dose 100 mg/L): 100% | control against nymphs of Tetranychus cinnabarinus ([3]; dose 0.63 mg/L): 100% | control against nymphs of Tetranychus cinnabarinus ([3]; dose 2.5 mg/L): 100%

CO/C=C(/C(=O)OC)c1ccccc1COc1cc(C(F)(F)F)nc(Nc2ccc(Cl)c(Cl)c2Cl)n1 [Compound 16]
hatching inhibition rate against eggs of Tetranychus cinnabarinus [2]: 100% | control against adults of Tetranychus cinnabarinus ([1]; dose 5 mg/L): 100% | control against adults of Tetranychus cinnabarinus ([1]; dose 10 mg/L): 100% | control against adults of Tetranychus cinnabarinus ([1]; dose 40 mg/L): 100% | control against adults of Tetranychus cinnabarinus ([1]; dose 100 mg/L): 100%

CO/C=C(/C(=O)OC)c1ccccc1COc1cc(C(F)(F)F)nc(Nc2ccc(Cl)c(C)c2Cl)n1 [Compound 17]
control against adults of Tetranychus cinnabarinus ([1]; dose 5 mg/L): 100% | control against adults of Tetranychus cinnabarinus ([1]; dose 10 mg/L): 100% | control against adults of Tetranychus cinnabarinus ([1]; dose 40 mg/L): 100% | control against adults of Tetranychus cinnabarinus ([1]; dose 100 mg/L): 100%

CO/C=C(/C(=O)OC)c1ccccc1COc1cc(C(F)(F)F)nc(Nc2cc(Cl)ccc2Cl)n1 [Compound 18]
control against adults of Tetranychus cinnabarinus ([1]; dose 40 mg/L): 100% | control against adults of Tetranychus cinnabarinus ([1]; dose 100 mg/L): 100%

CO/C=C(/C(=O)OC)c1ccccc1COc1nc(Nc2ccc(F)cc2F)nc(C(F)(F)F)c1C [Compound 79]
control against adults of Tetranychus cinnabarinus ([1]; dose 10 mg/L): 100% | control against adults of Tetranychus cinnabarinus ([1]; dose 40 mg/L): 100% | control against adults of Tetranychus cinnabarinus ([1]; dose 100 mg/L): 100%

CO/C=C(/C(=O)OC)c1ccccc1COc1nc(Nc2ccc(F)c(F)c2F)nc(C(F)(F)F)c1C [Compound 80]
control against adults of Tetranychus cinnabarinus ([1]; dose 40 mg/L): 100% | control against adults of Tetranychus cinnabarinus ([1]; dose 100 mg/L): 100%

CO/C=C(/C(=O)OC)c1ccccc1COc1nc(Nc2ccccc2Cl)nc(C(F)(F)F)c1C [Compound 82]
control against adults of Tetranychus cinnabarinus ([1]; dose 100 mg/L): 100%

CO/C=C(/C(=O)OC)c1ccccc1COc1nc(Nc2ccc(Cl)cc2)nc(C(F)(F)F)c1C [Compound 83]
control against adults of Tetranychus cinnabarinus ([1]; dose 100 mg/L): 100%

CO/C=C(/C(=O)OC)c1ccccc1COc1nc(Nc2ccccc2)nc(C(F)(F)F)c1C [Compound 84]
control against adults of Tetranychus cinnabarinus ([1]; dose 100 mg/L): 100%

CO/C=C(/C(=O)OC)c1ccccc1COc1nc(Nc2ccccc2)nc(C(F)(F)F)c1Cl [Compound 85]
control against adults of Tetranychus cinnabarinus ([1]; dose 100 mg/L): 100%

CO/C=C(/C(=O)OC)c1ccccc1COc1cc(C(F)(F)F)nc(Nc2ccccc2)n1 [Contrast A, reference compound]
inhibition at 0.625 µg/mL ([2]; 0.625 mg/L, Table 8): 0% | inhibition at 2.5 µg/mL ([2]; 2.5 mg/L, Table 8): 10% | inhibition at 10 µg/mL ([2]; 10 mg/L, Table 8): 100% | mortality at 0.625 µg/mL ([1]; 0.625 mg/L, Table 7): 0% | mortality at 1.25 µg/mL ([1]; 1.25 mg/L, Table 7): 10% | mortality at 2.5 µg/mL ([1]; 2.5 mg/L, Table 7): 30% | mortality at 5 µg/mL ([1]; 5 mg/L, Table 7): 60% | mortality at 10 µg/mL ([1]; 10 mg/L, Table 7): 90% | mortality at 40 µg/mL ([1]; 40 mg/L, Table 7): 100%

CO/C=C(/C(=O)OC)c1ccccc1COc1cc(C(F)(F)F)nc(N(C)C)n1 [Contrast B, reference compound]
mortality at 10 µg/mL ([1]; 10 mg/L, Table 7): 0% | mortality at 40 µg/mL ([1]; 40 mg/L, Table 7): 0%

CO/C=C(/C(=O)OC)c1ccccc1COc1cc(C(F)(F)F)nc(Nc2cccc(Cl)c2Cl)n1 [Contrast C]
inhibition at 0.625 µg/mL ([2]; 0.625 mg/L, Table 8): 0% | inhibition at 2.5 µg/mL ([2]; 2.5 mg/L, Table 8): 10% | inhibition at 10 µg/mL ([2]; 10 mg/L, Table 8): 100%

CO/C=C(/C(=O)OC)c1ccccc1COc1cc(C(F)(F)F)nc(OC(C)C)n1 [Fluacrypyrim, reference compound]
inhibition at 0.625 µg/mL [2]: 0% | inhibition at 2.5 µg/mL [2]: 10% | inhibition at 10 µg/mL [2]: 95% | mortality at 0.625 µg/mL [1]: 0% | mortality at 1.25 µg/mL [1]: 30% | mortality at 2.5 µg/mL [1]: 65% | mortality at 5 µg/mL [1]: 95% | mortality at 10 µg/mL [1]: 100% | mortality at 40 µg/mL [1]: 100%

CCC(C)(C)C(=O)OC1=C(c2ccc(Cl)cc2Cl)C(=O)OC12CCCCC2 [Spirodiclofen, reference compound]
Corrected efficacy (%) ([4]; the 1st day after treatment): 59% | Corrected efficacy (%) ([4]; the 3rd day after treatment): 72% | Corrected efficacy (%) ([4]; the 10th day after treatment): 75% | Corrected efficacy (%) ([4]; the 15th day after treatment): 76% | Corrected efficacy (%) ([4]; the 20th day after treatment): 83% | Corrected efficacy (%) ([4]; the 30th day after treatment): 82% | hatching inhibition rate against eggs (%) ([2]; 0.625 mg/L, Table 8): 0% | hatching inhibition rate against eggs (%) ([2]; 2.5 mg/L, Table 8): 70% | hatching inhibition rate against eggs (%) ([2]; 10 mg/L, Table 8): 100%
